According to patent US5428031A, “Methods of treating cardiac arrhythmia” (priority 1993, dated 1995):

Molecular target: T1, IKs (slowly activating delayed rectifier K+ current) (Cavia porcellus, UniProt O70344)
T1 construct: Guinea pig ventricular myocytes were isolated; endogenous in cells; host or cells: isolated guinea pig ventricular myocytes
Assay: cell-based
Format: cell-based, guinea pig
Description: Current amplitude is measured as the difference from the initial instantaneous current level following the capacitance discharge after changing the transmembrane voltage from -50 mV to +50 mV, to the current level at the end of the 1 second voltage step. Normally, an increase in the current amplitude occurs as a function of time and voltage during depolarization of the cardiac cell membrane and this increasing current has been defined as the delayed rectifier K^+ current (IK). […] IKs current occurs as a consequence of time- and voltage-dependent opening of ionic channels or pores in the cardiac cell membrane that allow the relatively selective flow of potassium ions (K^+) from the inside to the outside of the cell, that is, down the voltage and concentration gradient for K^+ ions that is inherent in cardiac cells. Thus, block of the IKs current ultimately reflects block of certain ion channels or pores in the cardiac cell membrane. However, the single pores or channels thought to underlie the IKs current have yet to be measured or identified at the single channel level.
Guinea pig ventricular myocytes were isolated using a modification of the procedure described by Mitra R and Morad M., "A Uniform Enzymatic Method for Dissociation of Myocytes from Hearts and Stomachs of Nertilorates", Am. J. Physiol. […] Excised hearts were perfused through the aorta (retrograde fashion) at a rate of 10 ml/min with oxygenated, warmed (37° C.) solutions described below. […] The head was then perfused with the same nominally Ca^2+ -free solution containing 150 units/ml Type II collagenase (Worthington) and 0.5 units/ml Type XIV protease (Sigma) for 8 minutes. This perfusate was followed by a Tyrode's solution containing 0.2 mM CaCl2 (without enzymes) for 5 minutes. The digested ventricles were cut into small pieces and gently shaken until cells were visibly dispersed. The cells were stored at room temperature until use, within 8 hours after isolation.
The suction microelectrode technique described by Giles, W. R. and Shibata, E. F., "Voltage clamp of bull-frog cardiac pacemaker cells: a quantitative, analysis of potassium currents". J. Physiol. […] Microelectrodes were made by using a two stage puller from square bore (1.0 mm o.d.) borosilicate capillary tubing. […] After establishing whole-cell recording mode, negative pressure was maintained on the pipette using a 1 ml gas-tight syringe attached via air tight tubing to the suction port of the microelectrode holder. This minimized dialysis of the cell with the pipette solution.
To record K^+ currents, the cells were bathed in a Ca^2+ -free Tyrode's :solution containing […] nisoldipine. […] A List EPC-7 clamp amplifier was used to voltage clamp the isolated cells. […] A variety of voltage pulse protocols were used to measure Ca^2+ current and three types of K^+ currents: inward rectifier (IK1), rapidly activating delayed rectifier (IKr) and the slowly activating delayed rectifier (IKs). Sanguinetti M. C. and Jurkiewicz, N. K., "Two components of cardiac delayed rectifier K^+ current: Differential sensitivity to block by Class III antiarrhythmic agents". […] Data was analyzed as % block from control membrane currents.
Nisoldipins was prepared as a 4 mM stock solution in polyethylne glycol 200. Compounds tested in this series were prepared as 10 mM stock solutions in polyethylene glycol 400 or dimethyl sulfoxide.

Cc1cccc(NC(=O)N[C@@H]2N=C(c3ccccc3)c3ccccc3N(C)C2=O)c1 [Compound 4, (R)-N-(2,3-dihydro-1-methyl-2-oxo-5-phenyl-1H-1,4-benzodiazepin-3-yl)-N'-(3-methylphenyl)urea]
IC50: 215 nM
block of IKs (5 μM): Complete block

CN1C(=O)[C@H](NC(=O)/C=C/c2ccc(Cl)cc2Cl)N=C(c2ccccc2)c2ccccc21 [Example 26, E-(+)-N-[(3R)-2,3-Dihydro-1-methyl-2-oxo-5-phenyl-1H-1,4-benzo-diazepin-3-yl]-3-(2,4-dichlorophenyl)-2-propenamide]
selective block of IKs (selective: 50% block of IKs at 1 μM or less and at least 10 fold lower than for IKr and/or IK1): selective blocker of IKs
